Consider two molecules from publication PMC9763582, “Analyzing the postulated inhibitory effect of Manumycin A on farnesyltransferase” (Frontiers in Chemistry, 2022).

The target in data set [1] is T1, C. elegans farnesyltransferase (ceFTase) (Caenorhabditis elegans, UniProt O44501+Q19752).
T1 construct: gene fntb-1; coding regions of FTα (NM_001392242.1) and FTβ (NM_001392654.1), N-terminal His-tag on β-subunit; with farnesyltransferase α-subunit (ceFNTA)
T1 sequence (Q19752 1-401): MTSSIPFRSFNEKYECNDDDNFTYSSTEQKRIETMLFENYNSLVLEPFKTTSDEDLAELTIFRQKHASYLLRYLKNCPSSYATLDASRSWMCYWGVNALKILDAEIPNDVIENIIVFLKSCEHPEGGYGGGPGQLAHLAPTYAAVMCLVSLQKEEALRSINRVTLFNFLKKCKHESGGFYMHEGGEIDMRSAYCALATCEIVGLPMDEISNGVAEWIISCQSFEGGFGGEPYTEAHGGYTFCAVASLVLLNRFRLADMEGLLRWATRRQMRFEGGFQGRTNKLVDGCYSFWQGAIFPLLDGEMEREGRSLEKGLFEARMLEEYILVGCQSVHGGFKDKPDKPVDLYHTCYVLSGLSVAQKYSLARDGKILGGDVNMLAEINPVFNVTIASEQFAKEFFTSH
T1 sequence (O44501 1-328): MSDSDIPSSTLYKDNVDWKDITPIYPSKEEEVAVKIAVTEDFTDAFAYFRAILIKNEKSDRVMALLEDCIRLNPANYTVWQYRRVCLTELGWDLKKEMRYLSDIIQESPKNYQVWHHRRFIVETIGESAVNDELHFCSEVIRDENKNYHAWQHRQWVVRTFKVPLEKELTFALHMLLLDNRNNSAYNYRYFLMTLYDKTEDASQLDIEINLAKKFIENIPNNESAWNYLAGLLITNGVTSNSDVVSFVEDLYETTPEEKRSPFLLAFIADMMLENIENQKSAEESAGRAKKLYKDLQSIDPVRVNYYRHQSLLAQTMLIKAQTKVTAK
The data set is described as follows: continuous fluorescence assay with Dansyl-GCVLS and FPP, […]°C; Ki calculated from IC50 […] (Cheng-Prusoff). The format is biochemical.

The target in data set [2] is T2, human farnesyltransferase (hFTase) (Homo sapiens, UniProt P49354+P49356).
T2 construct: gene FNTB; IMAC purified FTase, FTα/FTβ heterodimer, His-tagged β-subunit; with farnesyltransferase α-subunit (FNTA)
The data set is described as above. Type of data set: biochemical.

Substrate in data set [3]: CC(C)=CCC/C(C)=C/CC/C(C)=C/CO[P@@](=O)(O)OP(=O)(O)O
Kind of data set: purified protein. As to conditions: Zn2+ ([…] ZnCl2 in assay).

For orientation: Ki means a dissociation constant, usually derived from enzyme kinetics or from competition with a known ligand. Regarding `CCCC[C@@H](C)/C=C(C)/C=C(\C)C(=O)NC1=C[C@@](O)(/C=C/C=C/C=C/C(=O)NC2=C(O)CCC2=O)[C@@H]2O[C@@H]2C1=O` [Manumycin A], the results for the Ki in data set [1] and in data set [2] were 3.16 µM and 4.4 µM, respectively.

B1: C. elegans farnesyltransferase (ceFTase) (Caenorhabditis elegans) (protein)
chain 1: T1 sequence (Q19752 1-401)
chain 2: T1 sequence (O44501 1-328)
For orientation: Km means the concentration of substrate that gives half-maximal velocity. As for B1, the Km in data set [3] came out at 1.3 µM.
